Reference: PubChem BioAssay AID206 (DTP/NCI, 2004)
Values joined by “and” are separate entries in the source; they are usually repeats but may differ in a detail not shown here. Equal values may be shown once. Results filed as inconclusive are left out.

Tested on: nude mice, HT29 intrarenal xenograft, tumor weight T/C
Test: NCI In Vivo Anticancer Drug Screen. Data for tumor model HT29;CX-1 Human Adenocarcinoma (MER+) (intrarenal inoculation) in NU/NU Swiss (nude) mice
Settings: endpoint: mean tumor weight change, higher = larger tumour
Summary of the method: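 Tumor-bearing mice received test compound or vehicle, and tumor size or survival was recorded. Values are the treated-group measurement divided by the vehicle-treated control measurement.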

[1] = dose: 300.0 mg/kg/injection, schedule: Q04DX004 (sc), vehicle: Klucel (hydroxypropylcellulose) (HPC)
[2] = dose: 600.0 mg/kg/injection, schedule: Q04DX004 (sc), vehicle: Klucel (hydroxypropylcellulose) (HPC)

Q: COc1cc(NCc2ccc3nc(N)nc(N)c3c2C)cc(OC)c1OC was tested. Which T/C (dose: 9.35 mg/kg/injection, schedule: Q04DX004 (sc), vehicle: water) did it give?
A: The T/C was 88 % of control.

Q: And the T/C (dose: 10.0 mg/kg/injection, schedule: Q01DX010 (sc), vehicle: sodium bicarbonate)?
A: Its T/C is 35 % of control.

Q: And the T/C (dose: 18.7 mg/kg/injection, schedule: Q04DX004 (sc), vehicle: water)?
A: Its T/C is 117 % of control.

Q: And the T/C (dose: 37.5 mg/kg/injection, schedule: Q04DX004 (sc), vehicle: water)?
A: Its T/C is 32 % of control.

Q: How did the T/C (dose: 12.5 mg/kg/injection, schedule: Q04DX004 (sc), vehicle: water) turn out when O=NN(CCCl)C(=O)NCCO was run?
A: Its T/C is 81 % of control.

Q: What does the source list for O=C(CC(=O)C(F)(F)F)c1csc2ccccc12?
A: T/C (dose: 150.0 mg/kg/injection, schedule: Q04DX004 (sc), vehicle: Klucel (hydroxypropylcellulose) (HPC)): 116 % of control; T/C [1]: 73 % of control; T/C [2]: 87 % of control

Q: O=C(O)C1CC1.[Ag] was tested. Which T/C (dose: 75.0 mg/kg/injection, schedule: Q04DX004 (sc), vehicle: saline with Tween-80) did it give?
A: Its T/C is 81 % of control.

Q: What about the T/C (dose: 150.0 mg/kg/injection, schedule: Q04DX004 (sc), vehicle: saline with Tween-80) of the same compound?
A: Its T/C is 64 % of control.

Q: How did the T/C (dose: 31.25 mg/kg/injection, schedule: Q04DX004 (sc), vehicle: saline) turn out when CC[C@](O)(C(=O)O)c1cc2n(c(=O)c1CO)Cc1cc3ccccc3nc1-2 was run?
A: The T/C was 7 % of control.

Q: And the T/C (dose: 62.5 mg/kg/injection, schedule: Q04DX004 (sc), vehicle: saline)?
A: Its T/C is -10 % of control.

Q: And the T/C (dose: 125.0 mg/kg/injection, schedule: Q04DX004 (sc), vehicle: saline)?
A: The T/C was -46 % of control.

Q: With COc1c(C=O)c2c(c(OC)c1OC)-c1ccc(OC)c(=O)cc1[C@@H](NC(C)=O)CC2 as the compound, how does the T/C (dose: 18.75 mg/kg/injection, schedule: Q04DX004 (sc), vehicle: Klucel (hydroxypropylcellulose) (HPC)) read?
A: The T/C was 70 % of control.

Q: What about the T/C (dose: 37.5 mg/kg/injection, schedule: Q04DX004 (sc), vehicle: Klucel (hydroxypropylcellulose) (HPC)) of the same compound?
A: The T/C was 71 % of control.

Q: Which results are given for COc1cc(C[C@H]2c3cc(OC)c(OC)cc3CCN2C)c(Oc2cc3c(cc2OC)-c2c(OC)c(OC)cc4c2[C@H](C3)N(C)CC4)cc1OC?
A: T/C (dose: 100.0 mg/kg/injection, schedule: Q01DX010 (sc), vehicle: saline with Tween-80): 100 % of control; T/C (dose: 200.0 mg/kg/injection, schedule: Q01DX010 (sc), vehicle: saline with Tween-80): 45 % of control; T/C (dose: 400.0 mg/kg/injection, schedule: Q01DX010 (sc), vehicle: saline with Tween-80): 67 % of control; T/C (dose: 800.0 mg/kg/injection, schedule: Q01DX010 (sc), vehicle: saline with Tween-80): 63 % of control

Q: CSc1ncnc2c1ncn2C1OC(CO)C(O)C1O (stereo not drawn) was tested. Which T/C (dose: 37.5 mg/kg/injection, schedule: Q04DX004 (sc), vehicle: saline + alcohol) did it give?
A: The T/C was 74 % of control and 77 % of control and 80 % of control.

Q: And the T/C (dose: 125.0 mg/kg/injection, schedule: Q04DX004 (sc), vehicle: saline + alcohol)?
A: The T/C was 154 % of control.

Q: And the T/C (dose: 175.0 mg/kg/injection, schedule: Q04DX004 (sc), vehicle: saline + alcohol)?
A: The T/C was 65 % of control.

Q: What does the source list for COC(=O)C12OCC34C(CC5C(C)=CC(=O)C(O)C5(C)C3C(O)C1O)OC(=O)C(OC(=O)CC(C)C)C24 (stereo not drawn)?
A: T/C (dose: 1.5 mg/kg/injection, schedule: Q04DX004 (sc), vehicle: saline + alcohol): 59 % of control; T/C (dose: 3.0 mg/kg/injection, schedule: Q04DX004 (sc), vehicle: saline + alcohol): 76 % of control

Q: Which results are given for C[CH2][Pb]([CH2]C)([CH2]C)[O]C(=O)COc1ccccc1?
A: T/C (dose: 4.5 mg/kg/injection, schedule: Q04DX004 (sc), vehicle: saline with Tween-80): 100 % of control; T/C (dose: 9.0 mg/kg/injection, schedule: Q04DX004 (sc), vehicle: saline with Tween-80): 114 % of control; T/C (dose: 18.0 mg/kg/injection, schedule: Q04DX004 (sc), vehicle: saline with Tween-80): 65 % of control

Q: For CC(C)(C)C1CCCCC1, which T/C [1] is on record?
A: Its T/C is 94 % of control.

Q: What about the T/C [2] of the same compound?
A: The T/C was 97 % of control.

Q: And the T/C (dose: 1200.0 mg/kg/injection, schedule: Q04DX004 (sc), vehicle: Klucel (hydroxypropylcellulose) (HPC))?
A: The T/C was 56 % of control.

Q: What about the T/C (dose: 2400.0 mg/kg/injection, schedule: Q04DX004 (sc), vehicle: Klucel (hydroxypropylcellulose) (HPC)) of the same compound?
A: The T/C was 55 % of control.

Q: With COc1ccc(S(=O)(=O)N=N/C=C2\C=CC=CN2O)cc1OC as the compound, how does the T/C (dose: 18.75 mg/kg/injection, schedule: Q04DX004 (sc), vehicle: saline with Tween-80) read?
A: The T/C was 61 % of control.

Q: And the T/C (dose: 37.5 mg/kg/injection, schedule: Q04DX004 (sc), vehicle: saline with Tween-80)?
A: The T/C was 54 % of control.

Q: And the T/C (dose: 300.0 mg/kg/injection, schedule: Q04DX004 (sc), vehicle: saline with Tween-80)?
A: The T/C was 55 % of control.

Q: For CCCCCCCCCCCCCCC/C([O-])=N/[N+](C)(C)CC(C)O (stereo not drawn), which T/C (dose: 50.0 mg/kg/injection, schedule: Q04DX004 (sc), vehicle: Klucel (hydroxypropylcellulose) (HPC)) is on record?
A: Its T/C is 106 % of control.

Q: What about the T/C (dose: 100.0 mg/kg/injection, schedule: Q04DX004 (sc), vehicle: Klucel (hydroxypropylcellulose) (HPC)) of the same compound?
A: Its T/C is 103 % of control.

Q: And the T/C (dose: 200.0 mg/kg/injection, schedule: Q04DX004 (sc), vehicle: Klucel (hydroxypropylcellulose) (HPC))?
A: The T/C was 86 % of control.

Q: What about the T/C (dose: 400.0 mg/kg/injection, schedule: Q04DX004 (sc), vehicle: Klucel (hydroxypropylcellulose) (HPC)) of the same compound?
A: Its T/C is 110 % of control.
